Legend:
[1] = system: fireblight on Southern Crepe Myrtle; test: Streptomycin for control of fireblight on Southern Crepe Myrtle; details: infected plants sprayed until wet; ratings after two days
cotton = test: Cotton defoliation with oxalic acid, EDTA, citric acid as adjuvants, field plots; type: in vivo; details: Day 7 after spraying, test size field plots
Procedure: Oxalic acid (Adj II), EDTA (Adj III), and citric acid (Adj IV) were used as an adjuvants with harvest aid chemicals and compared to the commercial products ethephon and ethephon plus cyclanilide. The comparison was for defoliation only at 7 days after spraying on cotton. The tests were conducted on test size field plots, at dosages of 1 pound or 0.5 pounds per acre (#/ac).

Eastern Tent caterpillar = test: Ingestion insecticide sprayed on the tent; type: in vivo; details: evaluated 1 day after application
Procedure: This test involved the evaluation of an ingestion insecticide on the Eastern Tent caterpillar. The insecticide was mixed in a tank at the shown rate and sprayed on the tent, and the evaluation was performed after 1 day following application.

potato vines = test: Dessication of potato vines before harvest (speed); type: in vivo; details: for Defol %: at the time printed in column Hour; for Hour: time at which the printed Defol % was seen
Description: This example was used to how various permeabilizers are able to improve the speed in which various active components are able to obtain their desired effects on treated plants. In this example, a combination of oxalic acid and citric acid (Adjuvant 1) was used in combination with the harvest aid chemicals paraquat and diquat for the dessication of potato vines before harvest and compared to the commercial rates paraquat and diquat.

Xanthomonas campestris = test: Bactericide on bacterial leaf spot on tomatoes; type: in vivo; details: tomato plants innoculated with the bacteria; ratings after two weeks
Description: The tomato plants were innoculated with the bacteria. […] The ratings were made after two weeks on the percent leaves infected.

Alternaria solani = test: Fungicide for control of Early Blight on tomatoes; type: in vivo; details: tomato plants innoculated with the fungi; ratings after one week
Description: The tomato plants were innoculated with the fungi. The ratings were made after one week on the percent leaves infected with Alternaria and also the number with bad damage—necrosis.

[H]/N=C(/N)N[C@H]1[C@H](O)[C@@H](O)[C@H](O[C@@H]2O[C@@H](C)[C@](O)(C=O)[C@H]2O[C@@H]2O[C@@H](CO)[C@H](O)[C@@H](O)[C@@H]2NC)[C@@H](N/C(N)=N\[H])[C@@H]1O [Streptomycin, streptomycin]
Level Required for Control [1]: 60 ppm

O=P(O)(O)CCCl [eth 1#/ac, ethephon]
Defol % (cotton): 72%

CS/C(C)=N\OC(=O)N(C)SN(C)C(=O)O/N=C(\C)SC [Thiodicarb 0.1%, Thiodicarb]
Insecticide Efficacy (Eastern Tent caterpillar): 32%

C[n+]1ccc(-c2cc[n+](C)cc2)cc1 [paraquat 2 qt/ac, paraquat]
Defol % (potato vines): 98% | Hour (potato vines): 36 h

[Cu+2].[OH-].[OH-] [Copper 2#/acre, copper hydroxide]
Percent Leaves Infected (Xanthomonas campestris): 63%

N#Cc1c(Cl)c(Cl)c(Cl)c(C#N)c1Cl [Chlorothalonil 2.5 pt/ac, chlorothalonil]
Infected Leaflets (Alternaria solani): 60% | Infected Leaves (Alternaria solani): 42% | Leaflets with >50% Necrosis (Alternaria solani): 42%

c1cc[n+]2c(c1)-c1cccc[n+]1CC2 [diquat 2 qt/ac, diquat]
Defol % (potato vines): 96% | Hour (potato vines): 24 h
